Series [1] has as its system spinal cord membranes from μOR−/− mice. The series is described as follows: [35S]GTPγS binding, spinal cord membranes from μOR−/− mice. It is filed as biochemical.
A short description of series [2]: Chronic treatment, body weight. Particulars: 10 mg/kg/day p.o. for 5 days.
The test system of series [3] is castor oil-induced diarrhea in δOR−/− mice. Briefly: Castor oil-induced diarrhea in δOR−/− mice. It is filed as in vivo. Particulars: for castor oil induced fecal output (fecal weight): 4 h; for castor oil-induced decrease in body weight: 5 or 10 mg/kg p.o., 4 h after castor oil.
Series [4] deals with castor oil-induced diarrhea in WT mice. The format is in vivo. Particulars: for effect on body weight change in presence of naltrexone: WT and δOR−/− mice; for reduction in castor oil-induced diarrhea after naltrexone pre-treatment: 10 mg/kg p.o., naltrexone 10 mg/kg i.p. 20 min before; for castor oil-induced diarrhea (diarrhea score): 5 or 10 mg/kg p.o. 15 min before castor oil; for castor oil-induced diarrhea (diarrhea score) / castor oil induced fecal output (fecal weight): 4 h; for castor oil induced fecal output (fecal weight) / castor oil-induced decrease in body weight: 5 or 10 mg/kg p.o.

The target in series [5] is μOR (spinal cord membranes from δOR−/− mice) (Mus musculus, UniProt P42866). The series is described as follows: [35S]GTPγS binding, spinal cord membranes from δOR−/− mice. It is filed as biochemical. Particulars: spinal cord membranes (10 μg), basal = 100%. (GTPγS resists hydrolysis and so accumulates on activated G proteins.)
The target in series [6] is μOR (spinal cord membranes from WT mice) (Mus musculus, UniProt P42866). The series is described as follows: [35S]GTPγS binding, spinal cord membranes from WT mice. The format is biochemical. Particulars: spinal cord membranes (10 μg); for Emax (% basal), [35S]GTPγS binding: basal = 100%.
Series [7] addresses μOR homomers (μ^βgalOR cells) (Homo sapiens, UniProt P35372). It is filed as cell-based.
Series [8] concerns the target μOR-δOR heteromers (μ^βgalOR-δOR cells) (Homo sapiens, UniProt P35372+P41143).
For series [9], the target named is μOR (membranes from the ileum of WT mice) (Mus musculus, UniProt P42866). Briefly: [35S]GTPγS binding, ileal membranes from WT mice. The format is biochemical. Particulars: 10 μM (Fig. 1G).
In series [10] the test system is novel-environment stressed mice. Particulars: doses of 5–25 mg/kg; cited from earlier work.
For a further series, the system named is antinociception. Particulars: cited from earlier work.

The structures appear in SMILES notation. Like-named read-outs stand apart in the source and are kept apart here.

The EC50 is the midpoint of the concentration-response curve. A high value points to a less potent agent.

Sequence of μOR (spinal cord membranes from WT mice) (P42866 whole entry): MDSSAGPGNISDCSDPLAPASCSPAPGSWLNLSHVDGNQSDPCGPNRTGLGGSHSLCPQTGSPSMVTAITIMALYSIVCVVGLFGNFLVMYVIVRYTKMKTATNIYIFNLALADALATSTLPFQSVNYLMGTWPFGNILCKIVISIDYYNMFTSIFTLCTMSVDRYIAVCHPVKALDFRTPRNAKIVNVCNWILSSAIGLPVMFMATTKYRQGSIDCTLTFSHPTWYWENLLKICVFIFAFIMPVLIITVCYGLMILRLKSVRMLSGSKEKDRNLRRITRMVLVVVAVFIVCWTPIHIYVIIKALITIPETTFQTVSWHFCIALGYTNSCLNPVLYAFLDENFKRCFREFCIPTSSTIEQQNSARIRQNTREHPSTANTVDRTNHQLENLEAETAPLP
Sequence of μOR-δOR heteromers (μ^βgalOR-δOR cells) (P35372 whole entry): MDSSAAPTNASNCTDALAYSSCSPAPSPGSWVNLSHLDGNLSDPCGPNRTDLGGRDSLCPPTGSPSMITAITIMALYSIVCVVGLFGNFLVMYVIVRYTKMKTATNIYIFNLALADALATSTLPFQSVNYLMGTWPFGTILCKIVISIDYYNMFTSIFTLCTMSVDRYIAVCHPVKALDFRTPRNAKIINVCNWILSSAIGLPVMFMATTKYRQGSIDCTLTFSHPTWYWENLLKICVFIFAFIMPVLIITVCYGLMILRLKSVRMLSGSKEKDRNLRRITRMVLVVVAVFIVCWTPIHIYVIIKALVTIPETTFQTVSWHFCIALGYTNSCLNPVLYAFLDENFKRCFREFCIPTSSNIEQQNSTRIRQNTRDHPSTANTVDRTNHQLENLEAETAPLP
Sequence of μOR-δOR heteromers (μ^βgalOR-δOR cells) (P41143 whole entry): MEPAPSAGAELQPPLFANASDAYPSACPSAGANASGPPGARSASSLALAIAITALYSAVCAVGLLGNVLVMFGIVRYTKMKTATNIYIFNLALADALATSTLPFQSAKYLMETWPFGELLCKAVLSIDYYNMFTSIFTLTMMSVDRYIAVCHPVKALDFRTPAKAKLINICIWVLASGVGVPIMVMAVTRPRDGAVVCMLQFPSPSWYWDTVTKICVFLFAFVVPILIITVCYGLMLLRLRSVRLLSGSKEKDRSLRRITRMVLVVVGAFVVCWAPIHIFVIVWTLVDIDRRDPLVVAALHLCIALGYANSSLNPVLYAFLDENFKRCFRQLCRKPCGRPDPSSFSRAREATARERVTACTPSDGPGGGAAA
Sequence of μOR (spinal cord membranes from δOR−/− mice) (P42866 whole entry): as the sequence (P42866 whole entry) above
Sequence of μOR homomers (μ^βgalOR cells) (P35372 whole entry): as the sequence (P35372 whole entry) above
Sequence of μOR (membranes from the ileum of WT mice) (P42866 whole entry): as the sequence (P42866 whole entry) above

For `CN(C)C(=O)C(CCN1CCC(O)(c2ccc(Cl)cc2)CC1)(c1ccccc1)c1ccccc1` [loperamide], in series [1], the “increase of [35S]GTPγS binding” value is listed as “did not increase”. The “changes in body weight” value in series [2] is reported as “did not lead to significant changes”. Also, the “castor oil-induced diarrhea (diarrhea score)” value in series [3] (5 mg/kg p.o.) is reported as “did not significantly reduce”; in [3] (10 mg/kg p.o.), “completely eliminate”; in [4] (WT mice), “reduced”. Also, the “castor oil induced fecal output (fecal weight)” value is “significantly decreased” in series [3] (5 mg/kg p.o.) and “significantly reduces” in series [4] (WT mice). For the same molecule, the “castor oil-induced decrease in body weight” value in series [3] is on record as “blocked”; in series [4] (WT mice, 4 h after castor oil), “blocked”. In addition, in [4] (naltrexone 10 mg/kg i.p.), the “effect on body weight change in presence of naltrexone” value was “partly blocked”. Besides, in series [4] (WT mice), the “reduction in castor oil-induced diarrhea after naltrexone pre-treatment” value is “not observed”. For the same molecule, the “effect on fecal output with coadministration of naltrexone” value in series [4] (mouse, in vivo) is “blocked”.

As to `C[C@@H](NC(=O)[C@@H](N)Cc1ccc(O)cc1)C(=O)NCC(=O)N(C)[C@@H](Cc1ccccc1)C(=O)NCCO` [DAMGO, [D-Ala^2, N-MePhe^4, Gly-ol]-enkephalin], the “Emax (% basal), [35S]GTPγS binding” value in series [5] is ~ 147 % basal; in [6], ~ 143 % basal. In addition, in series [1], the “increase of [35S]GTPγS binding” value is listed as “did not increase”.

Turning to `COc1ccc(CN(C(=O)[C@@H](N)Cc2c(C)cc(C(N)=O)cc2C)[C@@H](C)c2ncc(-c3ccccc3)[nH]2)cc1C(=O)O` [eluxadoline], the “Emax (% basal), [35S]GTPγS binding” value in [5] is listed as ~ 143 % basal; in series [6] it was ~ 120 % basal. Also, the EC50 in [6] (EC50, [35S]GTPγS binding) was roughly 7 nM. Further, in series [1], the “increase of [35S]GTPγS binding” value was “did not increase”. The “changes in body weight” value in series [2] is “did not lead to significant changes”. The “block of β-arrestin recruitment by μOR-selective antibodies” value in series [7] was ~ 40%; in series [8] it was ~ 17%. Besides, in [8], the “block of β-arrestin recruitment by μOR-δOR heteromer-selective antibodies” value stood at 27%. Also, the “effect on castor oil-induced body weight change compared to WT mice” value in series [3] (5 mg/kg) is on record as “less effective”. In addition, the “castor oil-induced diarrhea (diarrhea score)” value in [3] (5 mg/kg p.o.) was “did not significantly reduce”; in series [3] (10 mg/kg p.o.), “partially eliminate”; in [4] (WT mice), “reduced”. The “castor oil induced fecal output (fecal weight)” value in series [3] (5 mg/kg p.o.) was “significantly decreased”; in [4] (WT mice), “significantly reduces”. The “castor oil-induced decrease in body weight” value in [3] is recorded as “blocked”; in series [4] (WT mice, 4 h after castor oil) it was “blocked”. For the same molecule, in [9], the “increase in [35S]GTPγS binding compared to DAMGO or loperamide” value is “higher increase”. Further, the “effect on body weight change in presence of naltrexone” value in series [4] (naltrexone 10 mg/kg i.p.) is listed as “partly blocked”. Further, the “fecal output versus vehicle control (constipation)” value in series [4] (WT mice, 5 mg/kg, 4 h after castor oil) was “slightly reduced fecal output to below the vehicle control”. Besides, the “reduction in castor oil-induced diarrhea after naltrexone pre-treatment” value in [4] (WT mice) is listed as “not observed”. Besides, the “effect on fecal output with coadministration of naltrexone” value in [4] (WT mice, naltrexone 10 mg/kg i.p.) is reported as “blocked”. The constipation entry in [10] is given as “did not cause constipation”.

On to `CN1CC[C@]23c4c5ccc(O)c4O[C@H]2[C@H](NC(=O)COCC(=O)NCCCCCCCNC(=O)COCC(=O)Nc2cccc4c6c([nH]c24)[C@@H]2Oc4c(O)ccc7c4[C@@]24CCN(CC2CC2)[C@@H](C7)[C@]4(O)C6)CC[C@@]3(O)[C@H]1C5` [MDAN21], for which, in the series on antinociception, the “antinociceptive potency compared to morphine” value is on record as 100 times.

The values above are taken from PMC4769596 (Biochemical pharmacology, 2014).
